Tests used:
[1] = xn = mol fraction of the nth substance listed; settings: 298.15 K; for surface tension liquid-gas: Drop volume; for mass density: 101 kPa, Liquid, Vibrating tube method
[2] = for mass density: 298.1 K, 101.33 kPa, Liquid, Vibrating tube method; for surface tension liquid-gas: 298.15 K, Drop volume

O [water] + CCCCn1cc[n+](C)c1.F[B-](F)(F)F
Settings	surface tension liquid-gas [mN/m]
[1], x2 = 0	71.35

O [water] + CCn1cc[n+](C)c1.F[B-](F)(F)F
Settings	surface tension liquid-gas [mN/m]
[1], x2 = 0	71.35

CCCCCCCC[n+]1ccn(C)c1.F[B-](F)(F)F [1-methyl-3-octylimidazolium tetrafluoroborate] + CCO
[1]
Settings	mass density [kg/m3]	surface tension liquid-gas [mN/m]
x1 = 0.1012	893	23.33
x1 = 0.2034	957.9	24.7
x1 = 0.3	996.6	25.99
x1 = 0.4096	1026.4	27.28
x1 = 0.5125	1047.8	27.9
x1 = 0.6156	1065.2	28.88
x1 = 0.7207	1079.3	29.9
x1 = 0.815	1088.8	30.86
x1 = 0.9014	1095.6	31.84
x1 = 1	1104.2	32.82

CCCCCCCC[n+]1ccn(C)c1.F[B-](F)(F)F [1-methyl-3-octylimidazolium tetrafluoroborate]
[2]
Settings	mass density [kg/m3]	surface tension liquid-gas [mN/m]
–	1104.2	32.84

CCn1cc[n+](C)c1.F[B-](F)(F)F [1-ethyl-3-methylimidazolium tetrafluoroborate] + O
[1]
Settings	mass density [kg/m3]	surface tension liquid-gas [mN/m]
x1 = 0.004	1005.5	67.38
x1 = 0.0077	1013.2	65
x1 = 0.0123	1021.8	62.87
x1 = 0.0132	1023.4	61.91
x1 = 0.0288	1046.4	58.15
x1 = 0.0483	1068.2	57.31
x1 = 0.0709	1088.6	55.92
x1 = 0.102	1111.7	55.24
x1 = 0.1418	1135.8	54.43
x1 = 0.2141	1169.1	53.8
x1 = 0.2191	1171	–
x1 = 0.2894	–	54.15
x1 = 0.3118	1200.3	–
x1 = 0.4011	–	54.01
x1 = 0.4551	1230	–
x1 = 0.4987	1236.7	–
x1 = 0.5074	–	53.88
x1 = 0.5923	1248.6	–
x1 = 0.6018	–	53.73
x1 = 0.691	1258.5	–
x1 = 0.7534	–	53.51
x1 = 0.7774	1265.5	–
x1 = 0.9015	–	53.25
x1 = 1	1279.9	53.04

CCO [ethanol] + CCn1cc[n+](C)c1.F[B-](F)(F)F
[1], x2 = 0
Settings	mass density [kg/m3]	surface tension liquid-gas [mN/m]
–	785.8	52.81

CCCCCCn1cc[n+](C)c1.F[B-](F)(F)F [1-hexyl-3-methylimidazolium tetrafluoroborate] + O
[1]
Settings	mass density [kg/m3]	surface tension liquid-gas [mN/m]
x1 = 0.3032	1115.8	37.93
x1 = 0.4059	1123.9	37.79
x1 = 0.5058	1129.2	37.65
x1 = 0.6061	1133.8	37.52
x1 = 0.7057	1137.4	37.4
x1 = 0.803	1140.3	37.35
x1 = 0.9002	1142.6	37.33
x1 = 1	1145.5	37.33

CCO [ethanol]
[2]
Settings	mass density [kg/m3]	surface tension liquid-gas [mN/m]
–	785.8	22

CCn1cc[n+](C)c1.F[B-](F)(F)F [1-ethyl-3-methylimidazolium tetrafluoroborate]
[2]
Settings	mass density [kg/m3]	surface tension liquid-gas [mN/m]
–	1279.9	52.81

CCCCn1cc[n+](C)c1.F[B-](F)(F)F [1-butyl-3-methylimidazolium tetrafluoroborate] + O
[1]
Settings	mass density [kg/m3]	surface tension liquid-gas [mN/m]
x1 = 0.0001	–	61.54
x1 = 0.0003	–	61.5
x1 = 0.0017	1000.9	–
x1 = 0.0035	1004.8	–
x1 = 0.0039	–	57.3
x1 = 0.0052	1008.5	–
x1 = 0.0058	–	54.34
x1 = 0.0069	1011.9	–
x1 = 0.0074	–	51.77
x1 = 0.0092	1014.4	–
x1 = 0.0094	–	50.63
x1 = 0.0197	1030.6	–
x1 = 0.02	–	46.93
x1 = 0.0335	1048.2	–
x1 = 0.0404	–	46.02
x1 = 0.0498	–	46.27
x1 = 0.0502	1065.2	–
x1 = 0.0586	–	46.25
x1 = 0.0698	–	46.14
x1 = 0.0736	1084.1	–
x1 = 0.0799	–	45.99
x1 = 0.0998	–	46.19
x1 = 0.1013	–	45.63
x1 = 0.1072	1103.9	–
x1 = 0.1081	–	46.23
x1 = 0.139	–	46.22
x1 = 0.1398	1118	–
x1 = 0.1621	–	46.16
x1 = 0.1688	1128	–
x1 = 0.1788	–	46.06
x1 = 0.1818	–	45.91
x1 = 0.2128	–	45.62
x1 = 0.252	1148.2	–
x1 = 0.2963	1156.2	46.25
x1 = 0.3734	1166.9	–
x1 = 0.4067	1169.4	46.32
x1 = 0.4408	1171.9	–
x1 = 0.4946	1177.9	–
x1 = 0.5252	1178.7	–
x1 = 0.5304	1181.5	46.02
x1 = 0.5723	1181.8	–
x1 = 0.6	1185	–
x1 = 0.6326	1187.9	45.81
x1 = 0.6922	1189.4	–
x1 = 0.7065	1191.1	45.68
x1 = 0.8003	–	45.52
x1 = 0.8167	1193.7	–
x1 = 0.9005	1197.8	45.41
x1 = 1	1201.2	45.33

CCCCn1cc[n+](C)c1.F[B-](F)(F)F [1-butyl-3-methylimidazolium tetrafluoroborate]
[2]
Settings	mass density [kg/m3]	surface tension liquid-gas [mN/m]
–	1201.2	45.33

CCCCCCn1cc[n+](C)c1.F[B-](F)(F)F [1-hexyl-3-methylimidazolium tetrafluoroborate]
[2]
Settings	mass density [kg/m3]	surface tension liquid-gas [mN/m]
–	1145.4	37.33

CCCCCCn1cc[n+](C)c1.F[B-](F)(F)F [1-hexyl-3-methylimidazolium tetrafluoroborate] + CCO
[1]
Settings	mass density [kg/m3]	surface tension liquid-gas [mN/m]
x1 = 0.098	893.9	23.11
x1 = 0.1998	964.6	24.21
x1 = 0.3	1011.9	25.62
x1 = 0.3991	1046.1	27.09
x1 = 0.5079	1073.7	28.82
x1 = 0.6123	1095.5	30.74
x1 = 0.702	1108.8	32.47
x1 = 0.803	1123.9	34.22
x1 = 0.9	1134.7	35.75
x1 = 1	1145.5	37.33

CCn1cc[n+](C)c1.F[B-](F)(F)F [1-ethyl-3-methylimidazolium tetrafluoroborate] + CCO
[1]
Settings	mass density [kg/m3]	surface tension liquid-gas [mN/m]
x1 = 0.6087	1190.3	33.58
x1 = 0.7056	1225.5	37.37
x1 = 0.8072	1241.6	42.77
x1 = 0.9054	1262.6	47.41
x1 = 1	1279.9	53.04

O [water]
Settings	surface tension liquid-gas [mN/m]
[2]	71.35

CCCCn1cc[n+](C)c1.F[B-](F)(F)F [1-butyl-3-methylimidazolium tetrafluoroborate] + CCO
[1]
Settings	mass density [kg/m3]	surface tension liquid-gas [mN/m]
x1 = 0.0986	897.2	22.83
x1 = 0.2002	977.4	23.28
x1 = 0.2553	1010.7	24.65
x1 = 0.2881	1027.9	–
x1 = 0.3284	1046.8	25.53
x1 = 0.3999	1075.5	26.55
x1 = 0.4202	1082.7	27.2
x1 = 0.5024	1108.6	28.87
x1 = 0.6082	1135.9	31.32
x1 = 0.7107	1157.4	34.9
x1 = 0.804	1173.7	37.99
x1 = 0.9059	1188.8	41.54
x1 = 1	1201.2	45.33

Reference: the NIST ThermoML archive (doi:10.1016/j.fluid.2009.07.010)
